Test results published in patent US9981916B2 (Genentech, Inc., priority 2013, dated 2018).

The molecules below were run against T1, RORc ligand binding domain (Homo sapiens, UniProt P51449) (assay: In vitro RORc ligand binding assay (25-[3H]hydroxycholesterol displacement, filter binding)). Conditions: 6 nM 25-[3H]hydroxycholesterol, 0.6 ug/mL RORc receptor, 3 h at 25° C.
T1 construct: host or cells: E. coli
T1 sequence (P51449 269-508 limits assumed): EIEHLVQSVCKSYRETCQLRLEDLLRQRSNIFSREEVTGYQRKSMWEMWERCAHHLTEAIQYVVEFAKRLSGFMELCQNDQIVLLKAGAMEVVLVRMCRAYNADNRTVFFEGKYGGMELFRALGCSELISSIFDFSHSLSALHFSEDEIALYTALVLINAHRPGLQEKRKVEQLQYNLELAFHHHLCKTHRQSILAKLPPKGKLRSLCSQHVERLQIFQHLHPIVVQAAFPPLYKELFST
How it was run: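 Compounds in 5% DMSO, either dose-response or screened at 1 and 10 uM, competed with 6 nM 25-[3H]hydroxycholesterol for 0.6 ug/mL RORc over 3 h at 25° C (HEPES pH 7.4, NaCl, MgCl2, DTT, BSA buffer). Bound tracer was filter-harvested and counted; nonspecific binding came from 1 uM 25-hydroxycholesterol.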

Point of comparison: `CCOC(=O)N(CC(F)F)C[C@@]12CC[C@@H](c3cc(-c4c(F)cccc4F)nnc31)C2(C)C` [Example 292, ethyl (2,2-difluoroethyl)(((5R,8S)-3-(2,6-difluorophenyl)-9,9-dimethyl-5,6,7,8-tetrahydro-5,8-methanocinnolin-8-yl)methyl)carbamate], IC50 7 nM. Against it:
- Cc1c[nH]nc1C1CN(C(=O)[C@]23CC[C@H](c4cc(-c5ccccc5F)nnc42)C3(C)C)C1 [Example 335, ((5S,8S)-3-(2-fluorophenyl)-9,9-dimethyl-5,6,7,8-tetrahydro-5,8-methanocinnolin-8-yl)(3-(4-methyl-1H-pyrazol-3-yl)azetidin-1-yl)methanone] — 400-fold higher, 2800 nM
- CNC(=O)C[C@]12CC[C@H](c3cc(-c4ccccc4F)nnc31)C2(C)C [Example 37, 2-[(5S,8S)-3-(2-fluorophenyl)-9,9-dimethyl-6,7-dihydro-5,8-methanocinnolin-8(5H)-yl]-N-methylacetamide] — 130-fold higher, 880 nM
- CC1(C)[C@@H]2CC[C@@]1(Cc1noc(CO)n1)c1nnc(-c3ccccc3F)cc12 [Example 45, (3-{[(5S,8S)-3-(2-fluorophenyl)-9,9-dimethyl-6,7-dihydro-5,8-methanocinnolin-8(5H)-yl]methyl}-1,2,4-oxadiazol-5-yl)methanol] — 110-fold higher, 756 nM
- COC(=O)N(C)[C@@]12CC[C@@H](c3cc(-c4c(F)cccc4F)nnc31)C2(C)C [Example 274, methyl ((5R,8R)-3-(2,6-difluorophenyl)-9,9-dimethyl-5,6,7,8-tetrahydro-5,8-methanocinnolin-8-yl)(methyl)carbamate] — 43-fold higher, 301 nM
- Cc1nnc(N(Cc2ccccc2)C[C@@]23CC[C@@H](c4cc(-c5c(F)cccc5F)nnc42)C3(C)C)o1 [Example 266, N-benzyl-N-(((5R,8S)-3-(2,6-difluorophenyl)-9,9-dimethyl-5,6,7,8-tetrahydro-5,8-methanocinnolin-8-yl)methyl)-5-methyl-1,3,4-oxadiazol-2-amine] — 31-fold higher, 214 nM
- CC1(C)[C@H]2CC[C@]1(C(=O)Nc1ccc(C#N)nc1)c1nnc(-c3ccccc3F)cc12 (stereo in doubt) [Example 169, (5R,8R)-N-(6-cyanopyridin-3-yl)-3-(2-fluorophenyl)-9,9-dimethyl-5,6,7,8-tetrahydro-5,8-methanocinnoline-8-carboxamide] — 470-fold higher, 3270 nM
- Cc1c[nH]nc1C1CN(C(=O)[C@@]23CC[C@@H](c4cc(-c5ccccc5F)nnc42)C3(C)C)C1 [Example 179, ((5R,8R)-3-(2-fluorophenyl)-9,9-dimethyl-5,6,7,8-tetrahydro-5,8-methanocinnolin-8-yl)(3-(4-methyl-1H-pyrazol-3-yl)azetidin-1-yl)methanone] — 400-fold higher, 2810 nM
- CC1(C)[C@H]2CC[C@]1(c1ccno1)c1nnc(-c3c(F)cccc3F)cc12 [Example 194, 5-((5R,8R)-3-(2,6-difluorophenyl)-9,9-dimethyl-5,6,7,8-tetrahydro-5,8-methanocinnolin-8-yl)isoxazole] — 7.1-fold higher, 50 nM
- CCOC(=O)c1nnc([C@@]23CC[C@@H](c4cc(-c5c(F)cccc5F)nnc42)C3(C)C)o1 [Example 327, ethyl 5-((5R,8R)-3-(2,6-difluorophenyl)-9,9-dimethyl-5,6,7,8-tetrahydro-5,8-methanocinnolin-8-yl)-1,3,4-oxadiazole-2-carboxylate] — 200-fold higher, 1390 nM
- CN(CC(N)=O)[C@@]12CC[C@@H](c3cc(-c4c(F)cccc4F)nnc31)C2(C)C [Example 306, 2-(((5R,8R)-3-(2,6-difluorophenyl)-9,9-dimethyl-5,6,7,8-tetrahydro-5,8-methanocinnolin-8-yl)(methyl)amino) acetamide] — 130-fold higher, 920 nM
- CC(C)OC1CN(C(=O)[C@@]23CC[C@@H](c4cc(-c5c(F)cccc5F)nnc42)C3(C)C)C1 [Example 190, ((5R,8R)-3-(2,6-difluorophenyl)-9,9-dimethyl-5,6,7,8-tetrahydro-5,8-methanocinnolin-8-yl)(3-isopropoxyazetidin-1-yl)methanone] — 260-fold higher, 1840 nM
- CNC(=O)C1CCCN1C(=O)[C@]12CC[C@H](c3cc(-c4c(F)cccc4F)nnc31)C2(C)C (stereo partly drawn) [Example 243, 1-((5S,8S)-3-(2,6-difluorophenyl)-9,9-dimethyl-5,6,7,8-tetrahydro-5,8-methanocinnoline-8-carbonyl)-N-methylpyrrolidine-2-carboxamide] — 420-fold higher, 2950 nM
- C[C@H](O)C(=O)N(CCC#N)C[C@@]12CC[C@@H](c3cc(-c4c(F)cccc4F)nnc31)C2(C)C [Example 324, (S)-N-(2-cyanoethyl)-N-(((5R,8S)-3-(2,6-difluorophenyl)-9,9-dimethyl-5,6,7,8-tetrahydro-5,8-methanocinnolin-8-yl)methyl)-2-hydroxypropanamide] — 100-fold higher, 732 nM
- CCN(C[C@@]12CC[C@@H](c3cc(-c4c(F)cccc4F)nnc31)C2(C)C)c1cccc(=O)[nH]1 [Example 301, 6-((((5R,8S)-3-(2,6-difluorophenyl)-9,9-dimethyl-5,6,7,8-tetrahydro-5,8-methanocinnolin-8-yl)methyl)(ethyl)amino) pyridin-2(1H)-one] — 1.7-fold higher, 12 nM
- CNC(=O)[C@]12CC[C@H](c3cc(-c4c(F)cccc4F)nnc31)C2(C)C [Example 53, (5S,8S)-3-(2,6-difluorophenyl)-N,9,9-trimethyl-6,7-dihydro-5,8-methanocinnoline-8(5H)-carboxamide] — 20-fold higher, 139 nM
- CNC(=O)C1CCN(C(=O)[C@]23CC[C@H](c4cc(-c5c(F)cccc5F)nnc42)C3(C)C)C1 (stereo partly drawn) [Example 244, 1-((5S,8S)-3-(2,6-difluorophenyl)-9,9-dimethyl-5,6,7,8-tetrahydro-5,8-methanocinnoline-8-carbonyl)-N-methylpyrrolidine-3-carboxamide] — 130-fold higher, 904 nM
- C[C@H]1CN(C(=O)[C@]23CC[C@H](c4cc(-c5c(F)cccc5F)nnc42)C3(C)C)C[C@@H]1O [Example 220, ((5S,8S)-3-(2,6-difluorophenyl)-9,9-dimethyl-5,6,7,8-tetrahydro-5,8-methanocinnolin-8-yl)((3R,4S)-3-hydroxy-4-methylpyrrolidin-1-yl)methanone] — 420-fold higher, 2940 nM
- CC1(C)[C@H]2CC[C@]1(CN1CCOC1=O)c1nnc(-c3c(F)cccc3F)cc12 [Example 279, 3-(((5R,8S)-3-(2,6-difluorophenyl)-9,9-dimethyl-5,6,7,8-tetrahydro-5,8-methanocinnolin-8-yl)methyl)oxazolidin-2-one] — 32-fold higher, 222 nM
- COCC(=O)N(CCC#N)C[C@@]12CC[C@@H](c3cc(-c4c(F)cccc4F)nnc31)C2(C)C [Example 311, N-(2-cyanoethyl)-N-(((5R,8S)-3-(2,6-difluorophenyl)-9,9-dimethyl-5,6,7,8-tetrahydro-5,8-methanocinnolin-8-yl)methyl)-2-methoxyacetamide] — 25-fold higher, 176 nM
- CN(C(=O)[C@]12CC[C@H](c3cc(-c4c(F)cccc4F)nnc31)C2(C)C)C1CCC1 [Example 70, (5S,8S)-N-cyclobutyl-3-(2,6-difluorophenyl)-N,9,9-trimethyl-6,7-dihydro-5,8-methanocinnoline-8(5H)-carboxamide] — 31-fold higher, 215 nM
- CONC(=O)[C@]12CC[C@H](c3cc(-c4c(F)cccc4F)nnc31)C2(C)C [Example 91, (5S,8S)-3-(2,6-difluorophenyl)-N-methoxy-9,9-dimethyl-6,7-dihydro-5,8-methanocinnoline-8(5H)-carboxamide] — 55-fold higher, 384 nM
